Results as given in ChEMBL document CHEMBL1921717, “Benzothiazole-containing hydroxamic acids as histone deacetylase inhibitors and antitumor agents” (Bioorg Med Chem Lett, 2011).
Values after ≈ are worked out from the molar mass of the structure shown. Active and inactive are the calls of the source. The calls are words filed in the database; no cut-off is given here.

Legend:
[1] = tested on: NCI-H460; assay: Cytotoxicity against human NCI-H460 cells; format: functional, cell-based
[2] = tested on: ASPC1; assay: Cytotoxicity against human AsPC1 cells; format: functional, cell-based
[3] = biological target: Histone deacetylase 4 (Homo sapiens) (UniProt P56524); assay: Inhibition of HDAC4 in human SW620 cells assessed as increase in histone H3 acetylation at 1 ug/ml after 24 hrs by Western blot analysis; format: cell-based; details: SW-620
Histone deacetylase 4 (Homo sapiens), sequence (P56524 whole entry): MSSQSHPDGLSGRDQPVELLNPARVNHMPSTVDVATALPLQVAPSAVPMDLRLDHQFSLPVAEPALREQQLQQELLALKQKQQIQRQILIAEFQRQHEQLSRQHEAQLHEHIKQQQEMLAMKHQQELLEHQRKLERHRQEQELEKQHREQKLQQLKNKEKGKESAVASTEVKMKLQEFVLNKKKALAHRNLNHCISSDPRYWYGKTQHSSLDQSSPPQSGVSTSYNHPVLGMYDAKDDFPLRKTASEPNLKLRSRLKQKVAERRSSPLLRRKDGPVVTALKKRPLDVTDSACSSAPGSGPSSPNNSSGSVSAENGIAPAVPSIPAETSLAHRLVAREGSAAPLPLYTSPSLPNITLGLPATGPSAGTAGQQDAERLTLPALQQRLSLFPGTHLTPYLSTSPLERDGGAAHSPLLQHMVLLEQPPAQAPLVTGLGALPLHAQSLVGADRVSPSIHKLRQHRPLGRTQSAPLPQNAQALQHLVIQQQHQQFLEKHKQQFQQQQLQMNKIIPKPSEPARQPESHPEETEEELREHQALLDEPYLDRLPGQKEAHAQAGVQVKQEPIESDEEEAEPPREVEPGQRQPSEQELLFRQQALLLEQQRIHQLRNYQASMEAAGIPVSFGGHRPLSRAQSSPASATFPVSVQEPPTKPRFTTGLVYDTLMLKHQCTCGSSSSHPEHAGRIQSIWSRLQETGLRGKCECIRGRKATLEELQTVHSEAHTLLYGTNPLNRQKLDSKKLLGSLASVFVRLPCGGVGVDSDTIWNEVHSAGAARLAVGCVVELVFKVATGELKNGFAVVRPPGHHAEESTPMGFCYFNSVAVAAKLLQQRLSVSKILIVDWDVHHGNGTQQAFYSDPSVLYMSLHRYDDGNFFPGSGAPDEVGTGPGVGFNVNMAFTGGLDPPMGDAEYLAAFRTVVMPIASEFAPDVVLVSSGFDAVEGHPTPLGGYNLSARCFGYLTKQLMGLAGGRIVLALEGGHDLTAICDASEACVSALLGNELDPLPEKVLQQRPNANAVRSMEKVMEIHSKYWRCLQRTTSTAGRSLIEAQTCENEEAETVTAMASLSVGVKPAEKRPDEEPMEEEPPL

[4] = biological target: Histone deacetylase 4 (Homo sapiens) (UniProt P56524); assay: Inhibition of HDAC4 in human HL60 cells assessed as increase in histone H4 acetylation at 1 ug/ml after 24 hrs by Western blot analysis; format: cell-based; details: HL-60
[5] = biological target: Histone deacetylase 3 (Homo sapiens) (UniProt O15379); assay: Inhibition of HDAC3 in human HL60 cells assessed as increase in histone H4 acetylation at 1 ug/ml after 24 hrs by Western blot analysis; format: cell-based; details: HL-60
Histone deacetylase 3 (Homo sapiens), sequence (O15379 whole entry): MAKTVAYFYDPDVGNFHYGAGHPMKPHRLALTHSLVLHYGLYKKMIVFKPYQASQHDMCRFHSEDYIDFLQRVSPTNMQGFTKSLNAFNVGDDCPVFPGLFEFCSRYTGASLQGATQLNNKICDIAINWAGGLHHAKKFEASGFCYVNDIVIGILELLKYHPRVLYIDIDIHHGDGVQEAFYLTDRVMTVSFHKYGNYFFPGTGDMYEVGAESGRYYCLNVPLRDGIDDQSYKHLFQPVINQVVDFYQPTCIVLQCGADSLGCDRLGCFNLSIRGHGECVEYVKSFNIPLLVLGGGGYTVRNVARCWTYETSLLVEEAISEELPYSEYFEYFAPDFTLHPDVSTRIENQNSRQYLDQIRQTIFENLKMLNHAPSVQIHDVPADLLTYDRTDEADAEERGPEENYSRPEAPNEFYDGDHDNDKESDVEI

[6] = tested on: SW-620; assay: Cytotoxicity against human SW620 cells; format: functional, cell-based
[7] = tested on: MCF7; assay: Cytotoxicity against human MCF7 cells; format: functional, cell-based
[8] = biological target: Histone deacetylase 3 (Homo sapiens) (UniProt O15379); assay: Inhibition of HDAC3 in human SW620 cells assessed as increase in histone H3 acetylation at 1 ug/ml after 24 hrs by Western blot analysis; format: cell-based; details: SW-620
[9] = tested on: PC-3; assay: Cytotoxicity against human PC3 cells; format: functional, cell-based

Row | Compound | inhibition [3] | inhibition [4] | inhibition [5] | inhibition [8] | IC50 [1] [µg/mL] | IC50 [2] [µg/mL] | IC50 [6] [µg/mL] | IC50 [7] [µg/mL] | IC50 [9] [µg/mL]
1 | CS(=O)(=O)c1ccc2nc(NC(=O)CCCCC(=O)NO)sc2c1 | inactive | inactive | inactive | inactive | > 30 | > 30 | > 30 | > 30 | > 30
2 | CS(=O)(=O)c1ccc2nc(NC(=O)CCCCCCC(=O)NO)sc2c1 | inactive | inactive | inactive | inactive | 6.54 (≈ 16.4 µM) | 13.5 (≈ 33.8 µM) | 5.42 (≈ 13.6 µM) | 15.3 (≈ 38.4 µM) | 5.69 (≈ 14.2 µM)
3 | O=C(CCCCCCC(=O)Nc1nc2ccc([N+](=O)[O-])cc2s1)NO | Active | Active | Active | Active | 1.9 (≈ 5.19 µM) | 1.65 (≈ 4.5 µM) | 0.29 (≈ 0.791 µM) | 3.83 (≈ 10.5 µM) | 1.28 (≈ 3.49 µM)
4 | CCOc1ccc2nc(NC(=O)CCCCCCC(=O)NO)sc2c1 | inactive | inactive | inactive | inactive | 6.58 (≈ 18 µM) | 9.88 (≈ 27 µM) | 10.4 (≈ 28.5 µM) | 11.6 (≈ 31.8 µM) | 16.9 (≈ 46.2 µM)
5 | COc1ccc2nc(NC(=O)CCCCCCC(=O)NO)sc2c1 | Active | Active | Active | Active | 1.25 (≈ 3.56 µM) | 0.79 (≈ 2.25 µM) | 0.96 (≈ 2.73 µM) | 1.85 (≈ 5.26 µM) | 1.56 (≈ 4.44 µM)
6 | O=C(CCCCCCC(=O)Nc1ccccc1)NO [VORINOSTAT] | – | – | – | – | – | – | – | – | 0.94 (≈ 3.56 µM)
7 | Cc1ccc2nc(NC(=O)CCCCCCC(=O)NO)sc2c1 | Active | Active | Active | Active | 0.84 (≈ 2.5 µM) | 0.54 (≈ 1.61 µM) | 0.56 (≈ 1.67 µM) | 1.6 (≈ 4.77 µM) | 0.53 (≈ 1.58 µM)
8 | CCOc1ccc2nc(NC(=O)CCCCC(=O)NO)sc2c1 | inactive | inactive | inactive | inactive | 7.96 (≈ 23.6 µM) | 16.7 (≈ 49.5 µM) | 9.26 (≈ 27.4 µM) | 8.72 (≈ 25.8 µM) | 6.69 (≈ 19.8 µM)

Further lines, with some results ahead:

Row | inhibition [3] | inhibition [4] | inhibition [5] | inhibition [8] | Compound | IC50 [1] [µg/mL] | IC50 [2] [µg/mL] | IC50 [6] [µg/mL] | IC50 [7] [µg/mL] | IC50 [9] [µg/mL]
9 | inactive | inactive | inactive | inactive | O=C(CCCCC(=O)Nc1nc2ccccc2s1)NO | 14.4 (≈ 49.1 µM) | 10.2 (≈ 34.7 µM) | 7.85 (≈ 26.8 µM) | 4.02 (≈ 13.7 µM) | 12.5 (≈ 42.6 µM)
10 | Active | Active | Active | Active | O=C(CCCCCCC(=O)Nc1nc2ccccc2s1)NO | 5.71 (≈ 17.8 µM) | 5.69 (≈ 17.7 µM) | 4.01 (≈ 12.5 µM) | 6.61 (≈ 20.6 µM) | 5.44 (≈ 16.9 µM)
11 | inactive | inactive | inactive | inactive | Cc1ccc2nc(NC(=O)CCCCC(=O)NO)sc2c1 | 11 (≈ 35.7 µM) | 13.3 (≈ 43.4 µM) | 4.69 (≈ 15.3 µM) | 4.27 (≈ 13.9 µM) | 6.23 (≈ 20.3 µM)
12 | inactive | inactive | inactive | inactive | COc1ccc2nc(NC(=O)CCCCC(=O)NO)sc2c1 | 21.4 (≈ 66.2 µM) | 23.9 (≈ 74 µM) | 9.07 (≈ 28 µM) | 5.91 (≈ 18.3 µM) | 15.3 (≈ 47.3 µM)
13 | inactive | inactive | inactive | inactive | O=C(CCCCC(=O)Nc1nc2ccc([N+](=O)[O-])cc2s1)NO | > 30 | > 30 | > 30 | > 30 | > 30
